Measurements: article PMC8861063, “Increase water solubility of Centellaasiatica extract by indigenous bioenhancers could improve oral bioavailability and disposition kinetics of triterpenoid glycosides in beagle dogs” (Scientific Reports, 2022)

Experiments:
[1] = dog, in vivo
Description: Eight healthy 8-month-old male beagles were obtained from the Chulalongkorn University Laboratory Animal Centre (CULAC), Chulalongkorn University. […] Food was provided twice a day, and water was available ad libitum. […] The animal experiments were approved by the Institutional Animal Care and Use Committee of the CULAC, Chulalongkorn University, Bangkok, Thailand (Protocol number 2073002, Approval date: February 21, 2020). All animal procedures were complied with the ethical principles and guidelines for the use of animals (National Research Council of Thailand, 2015). All animal experiments followed the ARRIVE reporting guidelines for documenting animal experiments.
(§1) One or two capsules containing the test substance were orally administered at 8:00 AM to the dogs following the experimental plan. […] The blood samples were centrifuged at 5000g for 10 min at 4 °C to collect plasma and then stored at − 80 °C until analysis. […] The volume of urine and weight of faeces were recorded and all samples were stored at − 80 °C until analysis. All dogs were reused with a washed out period of two weeks, to allow complete excretion of bioactive triterpenoids.
All biological samples (plasma, urine, and faeces) were subjected to protein precipitation to extract the major triterpenoids from the samples. Two hundred microliters of methanol with two internal standards (glycyrrhizin and glycyrrhetinic acid) was added to 50 µL of the biological sample and mixed for 10 min. Then, the sample was centrifuged at 12,000g for 10 min at 4 °C, and 10 µL of supernatant was injected into the LC–MS/MS system. Faeces samples were homogenised by adding methanol, then the mixture was centrifuged at 1500g for 10 min at 4 °C to collect the supernatant. In the case of the concentration of the biological sample exceeded the linear calibration curve; blank matrices were used to dilute before protein precipitation. For method validation, all major components in the biological sample of dog were determined and validated according to the previous reports with little modification.
The LC–MS/MS system was set up according to a previous published method. In brief, an LCMS-8060 coupled with a triple quadrupole mass spectrometer was controlled by LabSolution software version 5.86 (Shimadzu Corp.). A Synergi Fusion-RP C18 column (Phenomenex Inc.) maintained at 40 °C was used as the stationary phase. The analysis was run using absolute methanol and 0.2% formic acid in water as the mobile phase.
To evaluate significant differences between the pre- and post-dose of the test substances to the health status of dogs, the biochemical data were compared by using Student’s t-test. PK solution software version 2.0 (Summit Research Services) was used to analyse pharmacokinetic parameters by non-compartmental analysis. Cmax and Tmax were directly determined from plasma concentration–time curves. AUC0-24 was calculated using the trapezoidal rule and extrapolated to time infinity by the equation AUC0-inf = AUC0–24 + (Clast/kel), where Clast is the last observed plasma concentration after dosing and kel is the elimination rate constant. MRT was calculated as AUMC0-inf/AUC0-inf, where AUMC0-inf is the area under the first moment concentration–time curve. Vd was equal to dose/C0, where C0 is the plasma concentration at time zero and CL was calculated as dose/AUC0-inf. […] Absolute bioavailability was calculated as (AUCp.o./DOSEp.o.)/(AUCi.v./DOSEi.v.) × 100. Relative bioavailability was calculated from (AUCCTS/DOSECTS)/(AUCECa/DOSEECa) × 100. Before performing the statistical analysis in SPSS version 22.0 (IBM Corp.), the Shapiro–Wilk test was used to determine whether the data were normally distributed. A paired Student’s t test or Wilcoxon signed-rank test was used to determine significant differences of pharmacokinetic parameters between the groups.

[2] = dog, in vivo, iv
Procedure: as §1
All biological samples (plasma, urine, and faeces) were subjected to protein precipitation to extract the major triterpenoids from the samples. […] For method validation, all major components in the biological sample of dog were determined and validated according to the previous reports with little modification. […]
(§2) To evaluate significant differences between the pre- and post-dose of the test substances to the health status of dogs, the biochemical data were compared by using Student’s t-test. […] Cmax and Tmax were directly determined from plasma concentration–time curves. AUC0-24 was calculated using the trapezoidal rule and extrapolated to time infinity by the equation AUC0-inf = AUC0–24 + (Clast/kel), where Clast is the last observed plasma concentration after dosing and kel is the elimination rate constant. […] Absolute bioavailability was calculated as (AUCp.o./DOSEp.o.)/(AUCi.v./DOSEi.v.) × 100. […]

[3] = dog, in vivo; remark: listed apart in the source
Procedure: as §1
as §2, with “constant. MRT was calculated as AUMC0-inf/AUC0-inf, where AUMC0-inf is the area under the first moment concentration–time curve. Vd was equal to dose/C0, where C0 is the plasma concentration at time zero and CL was calculated as dose/AUC0-inf.” for “constant.”, “100. Relative bioavailability was calculated from (AUCCTS/DOSECTS)/(AUCECa/DOSEECa) × 100.” for “100.”

plasma concentration compared with madecassic acid ([1]; po)	AUC0-24 of madecassoside ([1]; iv, 0.46 mg/kg)	AUC0-inf of madecassoside ([1]; iv, 0.46 mg/kg)	Half-life of madecassoside ([1]; iv, 0.46 mg/kg)	MRT of madecassoside ([1]; iv, 0.46 mg/kg)	Vd of madecassoside ([1]; iv, 0.46 mg/kg)	excretion route of parent triterpenoid glycosides [2]	measured biochemical parameters (haematology, kidney, liver functions), pre-dose versus post-dose [3]	SMILES
approximately tenfold higher								C[C@H]1[C@H](C)CC[C@]2(C(=O)O)CC[C@]3(C)C(=CC[C@@H]4[C@@]5(C)C[C@@H](O)[C@H](O)[C@@](C)(CO)[C@@H]5CC[C@]43C)[C@H]12 [asiatic acid]
	15,662 ± 1927 µg.h/L	15,705 ± 1938 µg.h/L	3.88 (0.40) h	8.05 ± 0.99 h	0.18 ± 0.05 L/kg	excreted via urine within 24 h	no significant differences	C[C@H]1[C@H](C)CC[C@]2(C(=O)O[C@@H]3O[C@H](CO[C@@H]4O[C@H](CO)[C@@H](O[C@@H]5O[C@@H](C)[C@H](O)[C@@H](O)[C@H]5O)[C@H](O)[C@H]4O)[C@@H](O)[C@H](O)[C@H]3O)CC[C@]3(C)C(=CC[C@@H]4[C@@]5(C)C[C@@H](O)[C@H](O)[C@@](C)(CO)[C@@H]5[C@H](O)C[C@]43C)[C@H]12 [madecassoside]
